Test results reported in ChEMBL document CHEMBL1127285, “N-alkyl quinuclidinium substance P antagonists” (Bioorg Med Chem Lett, 1994).

molecular target: Substance-P receptor (Homo sapiens, UniProt P25103); test: Compound was tested in vitro for its Tachykinin receptor 1 affinity by the displacement of [125I]Bolton-Hunter substance p from human IM-9 cells; assay type: cell-based
Sequence (P25103 whole entry): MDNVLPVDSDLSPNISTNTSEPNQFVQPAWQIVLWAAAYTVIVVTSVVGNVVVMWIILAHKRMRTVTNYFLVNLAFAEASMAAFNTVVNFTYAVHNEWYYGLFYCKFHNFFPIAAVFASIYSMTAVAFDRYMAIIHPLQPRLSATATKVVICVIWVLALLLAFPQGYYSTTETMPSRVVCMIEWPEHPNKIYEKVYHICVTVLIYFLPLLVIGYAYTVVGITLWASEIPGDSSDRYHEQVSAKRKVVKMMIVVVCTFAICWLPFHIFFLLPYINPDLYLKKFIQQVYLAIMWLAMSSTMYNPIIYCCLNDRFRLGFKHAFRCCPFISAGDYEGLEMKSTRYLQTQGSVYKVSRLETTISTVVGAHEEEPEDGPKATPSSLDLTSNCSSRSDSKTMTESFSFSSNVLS

**Q.** Which IC50 does the source give for COc1ccccc1CN[C@H]1C2CC[N+](Cc3ccccc3)(CC2)[C@H]1C(c1ccccc1)c1ccccc1 here?
**A.** The IC50 was 0.332 µM.

**Q.** For COc1ccccc1CN[C@H]1C2CC[N+](C)(CC2)[C@H]1C(c1ccccc1)c1ccccc1, which IC50 is on record?
**A.** Its IC50 is 0.0122 µM.

**Q.** With CCOC(=O)C[N+]12CCC(CC1)[C@H](NCc1ccccc1OC)[C@@H]2C(c1ccccc1)c1ccccc1 as the compound, how does the IC50 read?
**A.** The IC50 was 0.0327 µM.

**Q.** With C=CC[N+]12CCC(CC1)[C@H](NCc1ccccc1OC)[C@@H]2C(c1ccccc1)c1ccccc1 as the compound, how does the IC50 read?
**A.** Its IC50 is 0.0223 µM.

**Q.** With COc1ccccc1CN[C@H]1C2CC[N+](CC(N)=O)(CC2)[C@H]1C(c1ccccc1)c1ccccc1 as the compound, how does the IC50 read?
**A.** The IC50 was 0.0013 µM.
